Measured values as given in EP1304333A2, “6,7-Oxygenated steroids and uses related thereto” (Inflazyme Pharmaceuticals, Ltd., priority 1996, dated 1998).

What was measured:
sensitized guinea pigs = assay: Allergen-induced changes in lung resistance and lung compliance in vivo; design: species or system guinea pig; conditions: 50 µg/kg inhalation
Description: In addition, the effect of compounds of the invention on lung function in vivo was determined in sensitized animals as follows: • Female Cam Hartley guinea pigs (350-400 g) are sensitized to ovalbumin by exposure of the guinea pigs to a nebulized solution of 1% ovalbumin in saline for 15 minutes. After 10-12 days, the animals are found to be acutely sensitized to the allergen (ovalbumin). Animals are treated by oral gavage, under light halothane anesthesia, with 300 µl polyethyleneglycol-200 (PEG) or 5 mg/Kg of test compound in 300 µl of PEG. Animals are treated once daily for 4 days with the final dose administered 2 hours prior to allergen challenge. Alternatively, compounds were delivered by inhalation, using a Hudson nebulizer driven by 6psi oxygen, providing a single dose of 50 µg/Kg 20 min prior to challenge.
An animal is anaesthetized using ketamine ([…]; i.p.) and xylazine (10 mg/Kg; i.p.) and 1% halothane during the surgical procedure. A tracheostomy is performed and a water-filled esophageal cannula is inserted prior to positioning the animal in a body plethysmograph. The tracheal cannula is attached to a fixed tracheal cannula in the plethysmograph. Cardiac function is monitored using electrocardiography. The animal is paralyzed using pancuronium bromide (0.8 mg/Kg; i.m.) and ventilated with 3 ml tidal breaths using a Harvard small animal ventilator, at a frequency of 60 breaths per minute. Pulmonary resistance and dynamic lung compliance data are obtained from volume, flow and transpulmonary pressure signals using multipoint analysis.
Pulmonary function is continually monitored throughout the experiment and measurements of lung resistance and lung compliance are made at various time-points (e.g., 0, 1, 2, 3, 4, 5, 10, 20 and 30 min) following antigen challenge. Data is collected on a computer-linked physiological measurement system using DIREC Physiological recording software and analyzed using ANADAT software designed for lung mechanics measurements. This software was obtained from RHT-InfoDat Inc., Montreal, Quebec, Canada.
Once baseline resistance and compliance measurements are obtained, the animal is challenged with 6 breaths of saline. After 10 minutes, during which time no alterations in lung function should occur, the animal is challenged with 6 breaths of 2 or 3% ovalbumin in saline (as the antigen stimulus). Saline and antigen are delivered in each breath using a Hudson nebulizer.

[1] = tested on: sensitized Brown Norway rats; assay: Allergen-induced lung inflammation (inflammatory cells in lung lavage fluid); type: in vivo, rat; conditions: 5 mg/kg/day for 4 days, p.o.; OA challenge; lavage 48 hours after challenge
Description: The ability of a compound to inhibit the allergen-induced accumulation of inflammatory cells such as eosinophils and neutrophils in the lavage fluid obtained from sensitized animals is indicative of anti-asthma activity. In particular, the model system is useful in the evaluation of the effects of compounds in the treatment of the late-phase response of asthma, when lung inflammation and the second phase of bronchoconstriction is apparent.
Male Brown Norway rats (200-250 g) are sensitized to ovalbumin by an intraperitoneal injection of 1 mg ovalbumin and 100 mg aluminum hydroxide in 1 ml of sterile saline. After 21 days the animals are found to be sensitized to ovalbumin. Animals are treated with drug or vehicle (0.3 ml PEG-200) once daily for 4 days by oral gavage. The animals are challenged by exposure, for a period of 60 minutes, to nebulized solution of 0.5% ovalbumin in saline generated using a Devillbis nebulizer. The final dose of drug is given 24 hours after challenge. Forty eight hours after challenge the animals are euthanized by an overdose of halothane and the lungs are lavaged with 7 x 2 mLs of sterile saline (room temperature). The recovered lavage fluid is placed on ice and centrifuged at 1200 rpm to separate the cells from the supernatant. The cells are exposed briefly to Tris/ammonium chloride, pH 7.3 to remove any red cells, and washed in phosphate buffered saline. Cytospins of each cell sample are prepared and stained for the presence of cells containing peroxidase and for the determination of the numbers of eosinophils and neutrophils. The numbers of inflammatory cells are expressed as a percentage of the total number of cells recovered in the lavage fluid.

[2] = tested on: Ascaris suum sensitized sheep; assay: Allergic sheep model of asthma (specific lung resistance, hyperresponsiveness to carbachol); type: in vivo; conditions: 400 µg/kg 30 min prior to and 4 hrs after challenge, inhalation; -0.5 hr
Description: The model is conscious, where the animals are breathing spontaneously, allowing measurement of airways bronchoconstriction and acute airway hyperresponsiveness.
Sheep which were naturally sensitized to Ascaris suum (30-40 Kg) were intubated with an endotracheal tube and a balloon catheter, positioned in the lower esophagus. Pleural pressure was estimated with the esophageal catheter, while later pressure was measured with a side-hole catheter advanced through and positioned distal to the tip of the endotracheal tube. Transpulmonary pressure differences between the trachea and pleural pressures were measured with a differential pressure transducer catheter system.
The proximal end of the endotracheal tube was connected to a Fleisch pneumotachograph in order to measure flow changes. Pulmonary resistance (RL) was calculated from pressure measurements of transpulmonary pressure, respiratory volume (from digital integration of the flow signal) and flow by the mid-flow technique. SRL was calculated as RL·Vtg (Vtg=thoracic gas volume).
Aerosols generated using a disposable nebulizer, were directed into a T-piece connected to a Harvard respirator and the tracheal tube in series. […]
Specific lung resistance (SRL) was measured every 60 min for 8 hours after antigen challenge. Airways hyperresponsiveness to carbachol was measured 24 hours after the initial challenge.

isolated trachea = assay: Allergen (OA)-induced contraction of isolated trachea from sensitized guinea pigs; design: species or system guinea pig; conditions: Study 3, 30 µM compound
Description: The effects of a number of the compounds described herein on allergen-induced bronchoconstriction were evaluated for anti-asthma activity. The ability of a compound to inhibit allergen-induced decreases in lung function in sensitized guinea pigs in response to antigen-challenge is indicative of anti-asthma activity. In particular, the model system is useful in the evaluation of the potential effects of a compound in the treatment of the early asthmatic reaction (EAR) when severe bronchoconstriction occurs.
Guinea pigs were exposed to a nebulized solution of 1% ovalbumin (OA) in saline for 15 min. […] Tracheal rings were prepared and bathed in Krebs-Henseleit solution at 37°C and aerated with 5% CO2 in O2. Tissues were suspended under a resting tension of 2 g and isometric contractions were measured using force-displacement transducers coupled to a polygraph. Tissues were incubated with each compound or 0.1% dimethylsulfoxide (as a control) for 20 min, after which increasing concentrations of OA (0.001 - 100 µg/ml) were added to the tissue. After the final concentration of OA was added and the response was recorded, the tissues were stimulated with 100 µM methacholine which caused maximum contraction of the trachea. The magnitude of the contraction induced by OA in the presence of each compound was expressed as a percentage of the maximum contraction obtained using methacholine (100 µM).

Question: With “3α,6α,7β-trihydroxy-17(20)-pregnene [Compound 330]” as the substance, how does the “Lung Compliance” value (sensitized guinea pigs; 1 min after challenge) read?
Answer: 0.349±0.059 ml/cm H2O

Question: And the “Lung Resistance” value (sensitized guinea pigs; 1 min after challenge)?
Answer: 0.382±0.033 cm H2O/ml/sec

Question: What about the “Lung Compliance” value (sensitized guinea pigs; 2 min after challenge) of the same substance?
Answer: 0.213±0.046 ml/cm H2O

Question: And the “Lung Resistance” value (sensitized guinea pigs; 2 min after challenge)?
Answer: 0.420±0.044 cm H2O/ml/sec

Question: And the “Lung Compliance” value (sensitized guinea pigs; 3 min after challenge)?
Answer: 0.176±0.045 ml/cm H2O

Question: And the “Lung Resistance” value (sensitized guinea pigs; 3 min after challenge)?
Answer: 0.420±0.051 cm H2O/ml/sec

Question: And the “Lung Compliance” value (sensitized guinea pigs; 4 min after challenge)?
Answer: 0.145±0.046 ml/cm H2O

Question: What about the “Lung Resistance” value (sensitized guinea pigs; 4 min after challenge) of the same substance?
Answer: 0.455±0.047 cm H2O/ml/sec

Question: What about the “Lung Compliance” value (sensitized guinea pigs; 5 min after challenge) of the same substance?
Answer: 0.146±0.031 ml/cm H2O

Question: What about the “Lung Resistance” value (sensitized guinea pigs; 5 min after challenge) of the same substance?
Answer: 0.446±0.124 cm H2O/ml/sec

Question: What about the “Lung Compliance” value (sensitized guinea pigs; 10 min after challenge) of the same substance?
Answer: 0.138±0.022 ml/cm H2O

Question: And the “Lung Resistance” value (sensitized guinea pigs; 10 min after challenge)?
Answer: 0.436±0.036 cm H2O/ml/sec

Question: And the “Lung Compliance” value (sensitized guinea pigs; 20 min after challenge)?
Answer: 0.193±0.054 ml/cm H2O

Question: And the “Lung Resistance” value (sensitized guinea pigs; 20 min after challenge)?
Answer: 0.413±0.076 cm H2O/ml/sec

Question: What about the “Lung Compliance” value (sensitized guinea pigs; 30 min after challenge) of the same substance?
Answer: 0.181±0.046 ml/cm H2O

Question: What about the “Lung Resistance” value (sensitized guinea pigs; 30 min after challenge) of the same substance?
Answer: 0.412±0.072 cm H2O/ml/sec

Question: What about the “Lung Compliance” value (sensitized guinea pigs; Baseline) of the same substance?
Answer: 0.463±0.129 ml/cm H2O

Question: And the “Lung Resistance” value (sensitized guinea pigs; Baseline)?
Answer: 0.300±0.025 cm H2O/ml/sec

Question: What about the “Lung Compliance” value (sensitized guinea pigs; OA/10 s) of the same substance?
Answer: 0.565±0.062 ml/cm H2O

Question: And the “Lung Resistance” value (sensitized guinea pigs; OA/10 s)?
Answer: 0.288±0.036 cm H2O/ml/sec

Question: What about the “Percentage Total Cells Recovered in Lavage Fluid: Cells Stained Positive for Peroxidase” value [1] of the same substance?
Answer: 5.65 ± 2.44 %

Question: What about the “Percentage Total Cells Recovered in Lavage Fluid: Eosinophils” value [1] of the same substance?
Answer: 1.98 ± 0.78 %

Question: What about the “Percentage Total Cells Recovered in Lavage Fluid: Neutrophils” value [1] of the same substance?
Answer: 6.16 ± 4.54%

Question: What about the “Specific Lung Resistance (% Baseline)” value [2] of the same substance?
Answer: 0±4 % Baseline

Question: What about the “percentage contraction compared to 100µM methacholine (100%)” value (shortened to “percentage contraction … (100%)”) (isolated trachea; 0.001 µg/ml OA) of the same substance?
Answer: 0%

Question: And the “percentage contraction … (100%)” value (isolated trachea; 0.01 µg/ml OA)?
Answer: 1.90%

Question: And the “percentage contraction … (100%)” value (isolated trachea; 0.1 µg/ml OA)?
Answer: 9.00%

Question: And the “percentage contraction … (100%)” value (isolated trachea; 1 µg/ml OA)?
Answer: 17.5%

Question: What about the “percentage contraction … (100%)” value (isolated trachea; 10 µg/ml OA) of the same substance?
Answer: 26.0%

Question: And the “percentage contraction … (100%)” value (isolated trachea; 100 µg/ml OA)?
Answer: 30.0%
